Patent publication US12129237B2, “Substituted diaminocarboxamide and diaminocarbonitrile pyrimidines, compositions thereof, and methods of treatment therewith” (SIGNAL PHARMACEUTICALS, LLC, priority 2011, dated 2024)

These compounds were tested against T1, JNK1 (Homo sapiens, UniProt P45983) (assay: JNK1 biochemical assays (one or more of: time resolved fluorescence, Z'-LYTE Cascade, radioactive)). Conditions: Table 3; JNK1 IC50 activity level; read-out: Act. Level.
T1 construct: purchased Carna Biosciences
T1 sequence (P45983 whole entry): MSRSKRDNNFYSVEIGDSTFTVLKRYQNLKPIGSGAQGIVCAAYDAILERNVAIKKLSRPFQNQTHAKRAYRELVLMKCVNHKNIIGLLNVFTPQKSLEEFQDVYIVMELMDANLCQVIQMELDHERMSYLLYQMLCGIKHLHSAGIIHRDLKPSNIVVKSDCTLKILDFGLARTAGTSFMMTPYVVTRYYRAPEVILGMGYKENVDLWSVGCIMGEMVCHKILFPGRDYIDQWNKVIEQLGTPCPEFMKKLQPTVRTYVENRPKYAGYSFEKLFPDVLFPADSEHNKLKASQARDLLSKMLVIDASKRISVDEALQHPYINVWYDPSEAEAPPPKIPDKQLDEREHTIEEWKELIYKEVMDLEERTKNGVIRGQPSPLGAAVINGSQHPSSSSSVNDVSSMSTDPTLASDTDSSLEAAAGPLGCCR

First: CO[C@H]1CC[C@](C)(Nc2ncc(C#N)c(N[C@@H]3CCC[C@H](O)C3)n2)CC1 [Example C-57, 4-((1R,3S)-3-hydroxycyclohexylamino)-2-((1r,4R)-4-methoxy-1-methylcyclohexylamino) pyrimidine-5-carbonitrile]
Second: C[C@@H]1CC[C@@H](Nc2nc(NC3CCC3)ncc2C#N)C[C@H]1O [Example C-65, 2-(cyclobutylamino)-4-((1R,3R,4R)-3-hydroxy-4-methylcyclohexylamino) pyrimidine-5-carbonitrile]
The IC50 of the first is higher: 200 to 800 nM for the first, less than 200 nM for the second. The second is the more potent here.

Compared with `N#Cc1cnc(N[C@H]2CC[C@H](O)CC2)nc1NC1CC(F)(F)C1` [Example C-58, 4-(3,3-difluorocyclobutylamino)-2-((1r,4r)-4-hydroxycyclohexylamino) pyrimidine-5-carbonitrile], `N#Cc1cnc(N[C@H]2CC[C@H](O)CC2)nc1NC12CC(C1)C2` [Example C-61, 4-(bicyclo[1.1.1]pentan-1-ylamino)-2-((1r,4r)-4-hydroxycyclohexylamino) pyrimidine-5-carbonitrile] is lower in IC50: 1000 to 10000 nM for the first, 200 to 800 nM for the second. The second is the more potent here.

`CC(C)(C)Nc1ncc(C#N)c(N[C@@H]2CCC[C@](C)(O)C2)n1` [Example C-59, 2-(tert-butylamino)-4-((1R,3S)-3-hydroxy-3-methylcyclohexylamino) pyrimidine-5-carbonitrile] and `CC(C)(C)Nc1ncc(C#N)c(NC(C)(C)C)n1` [Example C-63, 2,4-bis(tert-butylamino)pyrimidine-5-carbonitrile] fall in the same range of IC50: 200 to 800 nM for the first, 200 to 800 nM for the second.

First: CC(C)CCNc1nc(N[C@H]2CC[C@H](O)CC2)ncc1C#N [Example C-60, 2-((1r,4r)-4-hydroxycyclohexylamino)-4-(isopentylamino)pyrimidine-5-carbonitrile]
Second: CCC(C)(C)Nc1nc(N[C@H]2CC[C@H](O)CC2)ncc1C#N [Example C-62, 2-((1r,4r)-4-hydroxycyclohexylamino)-4-(tert-pentylamino)pyrimidine-5-carbonitrile]
The IC50 of the first is higher: 1000 to 10000 nM for the first, less than 200 nM for the second.

In the case of `N#Cc1cnc(NC2CCC(F)(F)CC2)nc1N[C@@H]1CCC[C@@H]1CO` [Example C-64, 2-(4,4-difluorocyclohexylamino)-4-((1R,2S)-2-(hydroxymethyl)cyclopentylamino) pyrimidine-5-carbonitrile], the IC50 is reported as 200 to 800 nM.
